Drawing on a melting point compilation (Tetko et al.; mined from patent text by program, amines drawn as free bases though some values may be those of a salt), this text covers melting point for 63 compounds.

Usually melting point stands for the temperature, or range, at which the solid turns liquid.

The compound `CCOC(=O)Oc1ccc(S(=O)(=O)N2c3cc(F)c(F)cc3-n3cccc3C2CC)cc1` (stereo not drawn) displayed a melting point of 105 to 107 °C. As to `COC1=CC2(C)CCc3c(OC)ccc(OC)c3C2=CC1=O` (stereo not drawn), the melting point fell in the range of 184 to 186 °C. The value for `CC1CC2=CC(=O)CCC2C2C(F)CC3(C)C(O)CCC3C12` (stereo not drawn) was 127 °C; that for `CS(=O)(=O)Nc1cccc(Nc2nc(NCC(O)CO)c3nc[nH]c3n2)c1` (stereo not drawn) was 164 to 168 °C. The value for `c1ccc(C(c2ccc3nccnc3c2)n2cnnc2)cc1` (stereo not drawn) was 98.1 °C; that for `O=C(O)CCCCCCCCNS(=O)(=O)c1cccc(Cl)c1` was 112 to 113 °C. As for `CCCc1cc(C(O)(CC)CC)ccc1-c1cc(O)ccc1CC`, the melting point turned out to be 130 °C. As for `O=C1N(Cc2ccc3c(c2)OCCO3)c2ccccc2C12COc1cc3c(cc12)CCO3` (stereo not drawn), the melting point fell in the range of 173 to 175 °C. The value for `O=C1CCCNC12CCCCC2` was 55 °C.

`CC(C)(C)OC(=O)N1CCN(CCO[Si](C)(C)C(C)(C)C)C1=O` registered a melting point of 35.5 to 45.5 °C. In the case of `CCc1c(-c2ccccc2)nn(C)c1-c1ccccc1`, the melting point was 80 to 81 °C.

In the case of `O=C(Nc1c[nH]nc1C(=O)Nc1cccc(C(F)(F)F)c1)c1ccccn1`, the melting point lay in the range of 236 to 237 °C. With `OC(CCC1CCN(Cc2ccccc2)CC1)c1ccc(N2CCCC2)cc1` (stereo not drawn), the melting point fell in the range of 93 to 95 °C. The value for `CCOC(=O)N1CCN(c2cc3nc(C(C)(C)C)sc3cc2N)CC1` was 215 to 220 °C; that for `CN1CCC(n2ccc3ccccc32)CC1` was 58 °C; that for `CC1(c2ccccc2)SC(=S)N(Nc2ccccc2)C1=NO` (stereo not drawn) was 83 to 84 °C. Regarding `Cc1ccc(S(=O)(=O)NC(=O)Nc2ccc(Cl)cc2)cc1`, the melting point fell in the range of 174 to 176 °C. The value for `Cc1ccc2c(c1)C(CCCCN1CCN(c3ccc(Cl)cc3)CC1)C(=O)N2` (stereo not drawn) was 159 to 161 °C; that for `O=c1[nH]c2ccccc2c2c1CNCC2` was 292 to 295 °C. Next, `O=c1c(Cc2ccccc2)c(-c2ncco2)n(-c2ccccc2)c2cc(Cl)ccc12`: 219 to 220 °C. Next, `CCCc1c(OCCCCCCc2cccc(OCCCC(C)(C)C(=O)O)c2CCC(=O)O)ccc2c1OCCC2=O`: 85 to 87 °C; `CC(C)(C)OC(=O)[C@H]1CC[C@H](c2ccccc2)N1C(=O)CNC(=O)Nc1cccc(C(=O)O)c1` (racemic): 236 °C; `CC(C)OC(=O)c1nnc2n1-c1ccc(Cl)cc1C(c1ccccc1Cl)=NC2`: 229 to 230 °C. `CCOc1nc(Cl)nc2cscc12` had a melting point of 136 to 140 °C. Next, `O=C1c2ccccc2C(=O)c2sc(-c3ccc(Cl)o3)nc21`: 258 °C; `O=Cc1ccc2c(c1)ncn2-c1cccc(-c2ccccc2)c1`: 170 to 172 °C. Next, `Cn1c(=O)n(COc2ccc(Cl)cc2)c(=O)c2c1ncn2Cc1ccccc1`: 96 °C; `CCC(=O)OCOC(=O)C1=C(C)N(COC)C(C)=C(C(=O)O)[C@@H]1c1cccc([N+](=O)[O-])c1`: 54 to 56 °C. Compound `CCCCCCCCCCC1CCCC1C(=O)Nc1c(OC)ccc2ncccc12` (stereo not drawn) came in with a melting point of 57 to 58 °C.

For `CCOC(=O)c1c(O)n(C)c2cc(-c3ccncc3)ccc2c1=O`, the melting point amounted to 184 °C. The value for `O=c1[nH]c(=O)n(C2CC(F)C(CO)O2)cc1C(I)=CI` (stereo not drawn) was 112 °C; that for `OCc1ncc2n1CCC2` was 110 to 120 °C.

Turning to `O=C(NNC(=S)NNC(=O)c1ccccc1)c1ccccc1`, the melting point is 177 to 179 °C. The value for `NC(=O)C1CCc2[nH]c3cc(Cl)c(Cl)cc3c2C1` (stereo not drawn) was 199 to 200 °C; that for `Cc1c(Br)c(Br)c(C)c(Br)c1Br` was 247 to 249 °C. Next, `CC1(C)Oc2ccc(OC(F)(F)F)cc2[C@@H](N2Cc3ccccc3C2=O)[C@@H]1O` (relative stereo): 212 to 213 °C. Turning to `CCOc1cc2c(c3c1OC(C)(C)C3)C(c1cccc(NC(N)=O)c1)=NC(C)(C)C2`, the melting point was 202 to 205 °C.

The compound `CCOC(=O)c1cc2ccc(N(CC)CC)cc2oc1=O` had a melting point of 77 to 78 °C. Next, `CN[C@@H]1COc2cc(Cl)cc(-c3ccc(Cl)cc3Cl)c2O1`: 140 °C; `O=C1Nc2ccccc2C1=Cc1ccccc1`: 177 to 179 °C; `CCOC(=O)NN=Cc1nc(-c2ccccc2)[nH]c1C`: 209 to 211 °C. Next, `Cc1ccc2c(c1)c(N1CCN(C(=O)c3cccs3)CC1)c(C#N)c(=O)n2Cc1ccc(F)cc1`: 274 °C; `CN1C(c2ccc(F)cc2)=NC(C(F)(F)F)(C(F)(F)F)C1NC(=O)c1ccc(N2CCCCC2)cc1` (stereo not drawn): 128 to 129 °C. `CC(C)c1cccc(C(C)C)c1NC(=O)Nc1c(-c2cccc(O)c2)c2cccnc2n(C)c1=O` yielded a melting point of 152 to 155 °C. The value for `CC(C)(C)NS(=O)(=O)c1ccc(S(N)(=O)=O)s1` was 116 to 120 °C; that for `COC(=O)NC1=NC(c2ccc(C(C)C)cc2)CCN1` (stereo not drawn) was 195 to 197 °C. As to `CCCCN(CC)CC(=O)N1c2ccccc2N(C)C(=O)c2cncnc21`, the melting point lay within 131 to 133 °C. The value for `COc1ccc(-c2sc3cc(OC)ccc3c2C(=O)c2ccc(O)cc2)cc1` was 114 to 116 °C. The value for `Oc1cc(O)c2c(c1)Oc1ccc(Br)cc1CC2` was 174 to 176 °C; that for `CCC(C)(OCc1nn(Cc2ccccc2)c2ccccc12)C(=O)O` (stereo not drawn) was 66 to 67 °C. As for `Cc1ccccc1C(=O)NC1CCC(=O)N2CCCC(C(=O)NC3CC(=O)OC3OCc3ccccc3)N2C1=O` (stereo not drawn), the melting point was 106 to 110 °C. Turning to `COCCc1nc2c(N)nc3cc(-c4cncc(CO)c4)ccc3c2n1CC(C)(C)O`, the melting point lay in the range of 210 to 211 °C. Next, `CCCCNC(=O)[C@@H](C[C@H](O)[C@H](CC1CCCCC1)NC(=O)OC(C)(C)C)C(C)C`: 115 to 118 °C; `COC1CC2C3CCC4=CC(=O)CCC4(C)C3(F)CCC2(C)C1(OC(C)=O)C(=O)CCl` (stereo not drawn): 241 to 244 °C; `CCCCCCCCCCCCCCCCOC(=O)c1cc(C(=O)OCCCCCCCCCCCCCCCC)cc(S(=O)O)c1`: 63 to 65 °C. On to `CC(C)(C)c1ccc2c(c1)Cc1cc(C(C)(C)C)ccc1-2`, for which the melting point lay in the range of 120 to 121 °C.

Compound `N#CCCNC(=O)c1cccc(-c2cccc3nn(Cc4ccc(F)cc4)cc23)c1` registered a melting point of 133 to 134 °C. Compound `Cc1ccc(-c2cc(C(=O)O)nn2Cc2ccc(Cl)c(Cl)c2)cc1` yielded a melting point of 172 °C. Compound `O=S(=O)(F)c1ccc(OCc2ccccc2)nn1` gave a melting point of 85 to 86 °C. `Cc1cc(C)cc(C(=O)c2c(C(C)C)c(=O)[nH]c(=O)n2CC2=CC(CO)C(CO)C2)c1` (stereo not drawn) displayed a melting point of 81 to 82 °C.

The compound `O=c1cccccc1N1CCN(Cc2ccccc2)CC1` showed a melting point of 78 to 80 °C. In turn, `CN(C)c1ccc(C(=O)c2cccc(N)c2)cc1` came in with a melting point of 110 °C. The value for `COc1ccc(C2CCCC(=O)N2c2ccc(OC)cc2)cc1` (stereo not drawn) was 108 to 109 °C.
